One may read the pIC50 as the negative decadic logarithm of the IC50, by convention in mol/L.

Our source for the IC50 values is patent publication US20160193216A1 (Nimbus Iris, Inc., priority 2012, published 2016).

pIC50: −log10 of the molar value.

This assay addresses T1, IRAK4 (Homo sapiens, UniProt Q9NWZ3).
T1 sequence (Q9NWZ3 1-460): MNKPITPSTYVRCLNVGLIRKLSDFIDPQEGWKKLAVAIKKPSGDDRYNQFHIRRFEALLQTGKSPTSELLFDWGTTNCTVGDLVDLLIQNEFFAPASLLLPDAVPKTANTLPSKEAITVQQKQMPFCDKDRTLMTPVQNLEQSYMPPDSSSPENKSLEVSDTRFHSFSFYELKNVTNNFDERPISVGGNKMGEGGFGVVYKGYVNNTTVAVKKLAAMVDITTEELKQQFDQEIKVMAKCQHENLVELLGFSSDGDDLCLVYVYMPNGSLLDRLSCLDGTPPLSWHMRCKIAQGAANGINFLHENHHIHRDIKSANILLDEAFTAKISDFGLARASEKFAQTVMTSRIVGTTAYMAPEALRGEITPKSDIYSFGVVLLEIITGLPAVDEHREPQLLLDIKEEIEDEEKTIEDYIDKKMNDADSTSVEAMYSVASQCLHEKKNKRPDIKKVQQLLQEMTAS
In words: IRAK-4 activity inhibition assay (Caliper). In kind it is biochemical. The settings on record: 37 μM ATP, 3.5 nM IRAK4. As to the method: A 1× kinase base buffer was prepared from 50 mM HEPES, pH 7.5 and 0.0015% Brij-35. A stop buffer was prepared from 100 mM HEPES, pH 7.5, 0.015% Brij-35, 0.2% Coating Reagent #3, and 50 mM EDTA.
Test compound was diluted to 50× of the final desired highest inhibitor concentration in reaction by 100% DMSO. 100 μl of this compound dilution was transferred to a well in a 96-well plate.
Test compound was serially diluted by transferring 30 μl to 60 μl of 100% DMSO in the next well and so forth for a total of 10 concentrations. 100 μl of 100% DMSO was added to two empty wells for no compound control and no enzyme control in the same 96-well plate.
A new 96-well plate was marked as intermediate plate. 5 μl of compound serial dilution was transferred from source plate to the corresponding wells of the intermediate plate. 45 μl of 1× kinase base buffer (KB buffer) was added to each well of the intermediate plate. The intermediate plate was placed for 10 min on a shaker.
5 μl of each well was transferred from the 96-well intermediate plate to a 384-well plate in duplicates. […] A2 of the 96-well plate is transferred to A3 and A4 of the 384-well plate, and so on.
IRAK4 and DTT in 1× kinase base buffer was added.
Assay plate already contained 5 μl of compound in 10% DMSO. Added 10 μl of 2.5× enzyme solution to each well of the 384-well assay plate, except no enzyme control wells. […] Added 10 μl of 1× kinase base buffer to no enzyme control wells in the assay plate. Incubated at room temperature for 10 min.
Added 10 μl of 2.5× peptide solution to each well of the 384-well assay plate. […] Incubated at 28° C. for 40 minutes. Added 25 μl of stop buffer to stop reaction. Collected data on Caliper.
Copied conversion % data from Caliper program. Converted conversion % values to percent inhibition values. Percent inhibition=(max−conversion %)/(max−min)*100, where “max” means the conversion % of DMSO control and “min” means the conversion % of no enzyme control.
The compound numbers correspond to the compound numbers in Table 1. […] “NA” stands for “not assayed.”
In turn, `CN(C)[C@H]1CC[C@H](Oc2ncnc3sc4c(c23)[C@@H](C[C@@H](O)c2cc[nH]n2)CC4)CC1` [Compound I-98, (R)-2-((R)-4-(((1r,4R)-4-(dimethylamino)cyclohexyl)oxy)-6,7-dihydro-5H-cyclopenta[4,5]thieno[2,3-d]pyrimidin-5-yl)-1-(1H-pyrazol-3-yl)ethanol] gave a pIC50 greater than 5.30. With `NC(=O)C[C@H]1CCc2sc3ncnc(O[C@H]4CC[C@H](N)CC4)c3c21` [Compound I-150, 2-[(3R)-12-[(4-aminocyclohexyl)oxy]-7-thia-9,11-diazatricyclo[6.4.0.0[2,6]]dodeca-1(12),2(6),8,10-tetraen-3-yl]acetamide] the figure was greater than 5.30; with `CC[C@]1(N(C)C)CC[C@H](Oc2ncnc3sc4c(c23)[C@@H](CC(N)=O)CC4)CC1` [Compound I-95, 2-[(3R)-12-[[4-(dimethylamino)-4-ethylcyclohexyl]oxy]-7-thia-9,11-diazatricyclo[6.4.0.0[2,6]]dodeca-1(8),2(6),9,11-tetraen-3-yl]acetamide], greater than 5.30; with `C[C@@H]1COCCN1[C@H]1CC[C@H](Oc2ncnc3sc4c(c23)[C@@H](CC(N)=O)CC4)CC1` [Compound I-227, 2-[(3R)-12-([4-[(3R)-3-methylmorpholin-4-yl]cyclohexyl]oxy)-7-thia-9,11-diazatricyclo[6.4.0.0[2,6]]dodeca-1(8),2(6),9, 11-tetraen-3-yl]acetamide], greater than 5.30.

`C#CCOC[C@@H]1CCc2sc3ncnc(O[C@H]4CC[C@H](N(C)C)CC4)c3c21` [Compound I-48, N,N-dimethyl-4-[[(3R)-3-[(prop-2-yn-1-yloxy)methyl]-7-thia-9,11-diazatricyclo[6.4.0.0[2,6]]dodeca-1(8),2(6),9,11-tetraen-12-yl]oxy]cyclohexan-1-amine] had a negative logarithm of the IC50 (pIC50) greater than 5.30. With `CN[C@H]1CC[C@H](Oc2ncnc3sc4c(c23)[C@@H](CC(=O)NC[C@@H](C)O)CC4)CC1` (stereo in doubt) [Compound I-151, N-[(2R)-2-hydroxypropyl]-2-[(3R)-12-[[4-(methylamino)cyclohexyl]oxy]-7-thia-9,11-diazatricyclo[6.4.0.0[2,6]]dodeca-1(12),2(6),8,10-tetraen-3-yl]acetamide] the figure was 4.70 to 5.30; with `OC[C@@H]1CCc2sc3ncnc(N[C@H]4CC[C@H](N5CCOCC5)CC4)c3c2C1` [Compound I-211, [(12R)-3-[[4-(morpholin-4-yl)cyclohexyl]amino]-8-thia-4,6-diazatricyclo[7.4.0.0[2,7]]trideca-1(9),2,4,6-tetraen-12-yl]methanol], greater than 5.30; with `CCN[C@H]1CC[C@H](Oc2ncnc3sc4c(c23)[C@@H](C[C@@H](O)C(N)=O)CC4)CC1` [Compound I-139, (2R)-3-[(3R)-12-[[4-(ethylamino)cyclohexyl]oxy]-7-thia-9,11-diazatricyclo[6.4.0.0[2,6]]dodeca-1(8),2(6),9,11-tetraen-3-yl]-2-hydroxypropanamide], greater than 5.30. In turn, `CN(C)[C@H]1CC[C@H](Nc2ncnc3sc4c(c23)C(CC(=O)N2CC[C@H](O)C2)CC4)CC1` (stereo partly drawn) [Compound I-15, 2-(4-(((1r,4S)-4-(dimethylamino)cyclohexyl)amino)-6,7-dihydro-5H-cyclopenta[4,5]thieno[2,3-d]pyrimidin-5-yl)-1-((S)-3-hydroxypyrrolidin-1-yl)ethanone] gave a pIC50 of less than 4.30.

Regarding `OCC[C@@H]1CCc2sc3ncnc(O[C@H]4CC[C@H](N5CCOCC5)CC4)c3c2C1` [Compound I-145, 2-((R)-4-(((1r,4R)-4-morpholinocyclohexyl)oxy)-5,6,7,8-tetrahydrobenzo[4,5]thieno[2,3-d]pyrimidin-6-yl)ethanol], the pIC50 is greater than 5.30. The result for `CC[C@@H](O)C[C@H]1CCc2sc3ncnc(O[C@H]4CC[C@](CC)(N(C)C)CC4)c3c21` [Compound I-101, (2R)-1-[(3R)-12-[[4-(dimethylamino)-4-ethylcyclohexyl]oxy]-7-thia-9,11-diazatricyclo[6.4.0.0[2,6]]dodeca-1(8),2(6),9,11-tetraen-3-yl]butan-2-ol] reads greater than 5.30.
